Test results reported in the NIST ThermoML archive (doi:10.1016/j.jct.2017.08.004).

Experiment: molar heat capacity at constant pressure
Conditions: 101.33 kPa, Crystal

OC[C@@H](O)[C@H](O)[C@@H](O)CO [xylitol]
Conditions | molar heat capacity at constant pressure [J/K/mol]
190.15 K, Small sample (50 mg) DSC | 131.3
191.15 K, Small sample (50 mg) DSC | 132.22
191.51 K, relaxation calorimetry | 137.32
192.15 K, Small sample (50 mg) DSC | 132.97
193.15 K, Small sample (50 mg) DSC | 133.63
194.15 K, Small sample (50 mg) DSC | 134.85
195.15 K, Small sample (50 mg) DSC | 136.05
196.15 K, Small sample (50 mg) DSC | 137.13
197.15 K, Small sample (50 mg) DSC | 137.99
198.15 K, Small sample (50 mg) DSC | 138.87
199.15 K, Small sample (50 mg) DSC | 139.73
200 K, relaxation calorimetry | 142.38
200.15 K, Small sample (50 mg) DSC | 140.65
201.15 K, Small sample (50 mg) DSC | 141.4
201.63 K, relaxation calorimetry | 143.25
202.15 K, Small sample (50 mg) DSC | 142.18
203.15 K, Small sample (50 mg) DSC | 143.08
204.15 K, Small sample (50 mg) DSC | 143.76
205.15 K, Small sample (50 mg) DSC | 144.29
206.15 K, Small sample (50 mg) DSC | 145.08
207.15 K, Small sample (50 mg) DSC | 145.87
208.15 K, Small sample (50 mg) DSC | 146.4
209.15 K, Small sample (50 mg) DSC | 147.11
210 K, relaxation calorimetry | 148.6
210.15 K, Small sample (50 mg) DSC | 147.83
211.15 K, Small sample (50 mg) DSC | 148.54
211.72 K, relaxation calorimetry | 149.26
212.15 K, Small sample (50 mg) DSC | 149.22
213.15 K, Small sample (50 mg) DSC | 149.76
214.15 K, Small sample (50 mg) DSC | 150.56
215.15 K, Small sample (50 mg) DSC | 151.28
216.15 K, Small sample (50 mg) DSC | 152.02
217.15 K, Small sample (50 mg) DSC | 152.63
218.15 K, Small sample (50 mg) DSC | 153.29
219.15 K, Small sample (50 mg) DSC | 154.13
220 K, relaxation calorimetry | 154.86
220.15 K, Small sample (50 mg) DSC | 154.86
221.15 K, Small sample (50 mg) DSC | 155.65
221.81 K, relaxation calorimetry | 156.12
222.15 K, Small sample (50 mg) DSC | 156.3
223.15 K, Small sample (50 mg) DSC | 157.01
224.15 K, Small sample (50 mg) DSC | 157.66
225.15 K, Small sample (50 mg) DSC | 158.24
226.15 K, Small sample (50 mg) DSC | 158.84
227.15 K, Small sample (50 mg) DSC | 159.41
228.15 K, Small sample (50 mg) DSC | 160.16
229.15 K, Small sample (50 mg) DSC | 160.62
230 K, relaxation calorimetry | 161.19
230.15 K, Small sample (50 mg) DSC | 161.2
231.15 K, Small sample (50 mg) DSC | 162.12
231.89 K, relaxation calorimetry | 162.24
232.15 K, Small sample (50 mg) DSC | 162.73
233.15 K, Small sample (50 mg) DSC | 163.22
234.15 K, Small sample (50 mg) DSC | 164.01
235.15 K, Small sample (50 mg) DSC | 164.81
236.15 K, Small sample (50 mg) DSC | 165.55
237.15 K, Small sample (50 mg) DSC | 166.14
238.15 K, Small sample (50 mg) DSC | 166.88
239.15 K, Small sample (50 mg) DSC | 167.65
240 K, relaxation calorimetry | 167.6
240.15 K, Small sample (50 mg) DSC | 168.23
241.15 K, Small sample (50 mg) DSC | 168.92
241.89 K, relaxation calorimetry | 168.66
242.15 K, Small sample (50 mg) DSC | 169.52
243.15 K, Small sample (50 mg) DSC | 170.22
244.15 K, Small sample (50 mg) DSC | 170.79
245.15 K, Small sample (50 mg) DSC | 171.35
246.15 K, Small sample (50 mg) DSC | 172.07
247.15 K, Small sample (50 mg) DSC | 172.62
248.15 K, Small sample (50 mg) DSC | 173.32
249.15 K, Small sample (50 mg) DSC | 173.97
250 K, relaxation calorimetry | 174.1
250.15 K, Small sample (50 mg) DSC | 174.75
251.15 K, Small sample (50 mg) DSC | 175.38
252.05 K, relaxation calorimetry | 175.66
252.15 K, Small sample (50 mg) DSC | 176.09
253.15 K, Small sample (50 mg) DSC | 176.77
254.15 K, Small sample (50 mg) DSC | 177.72
255.15 K, Small sample (50 mg) DSC | 178.41
256.15 K, Small sample (50 mg) DSC | 179.25
257.15 K, Small sample (50 mg) DSC | 180.21
258.15 K, Small sample (50 mg) DSC | 180.68
259.15 K, Small sample (50 mg) DSC | 181.27
260 K, relaxation calorimetry | 180.7
260.15 K, Small sample (50 mg) DSC | 182.15
